# Where two headings read alike, the source gives them in different places.
# Legend:
# [1] = Dog PK of astaxanthin derivatives (CXPK07402, 07404, 07405, 07406); conditions: dog, in vivo, po, 20 mg/kg
# Experimental: In another experiment, ADL was administered to non-naïve beagle dogs orally (as an aqueous suspension containing 0.5% carboxymethylcellulose) and intravenously as an aqueous solution. Oral doses that included 10 mg/kg of the carotenoid derivative, 100 mg/kg of the carotenoid derivative, and 500 mg/kg of the carotenoid derivative were administered to each dog. The intravenous dosage was 5 mg/kg. (See FIG. 20, PK Study #CXPK07402). For each carotenoid derivative given to the dogs in this example, the amount of all astaxanthin isomers, the amount of trans astaxanthin isomers, and the amount of cis astaxanthin isomers in the plasma was determined at predefined time intervals for 3 days (72 hours).
# In another experiment, ADL was administered to naïve beagle dogs orally (as an aqueous suspension containing 0.5% carboxymethylcellulose) twice a day for six days. Each oral dose included 75 mg/kg of the carotenoid derivative. (See FIG. 20, PK Study #CXPK07404). For each carotenoid derivative given to the dogs in this example, the amount of all astaxanthin isomers, the amount of trans astaxanthin isomers, and the amount of cis astaxanthin isomers in the plasma was determined at predefined time intervals for 6 days.
# In another experiment, all-trans 3S,3′ S-astaxanthin diester di-beta-alanine dihydrochloride salt (hereinafter “ADA”); ADG; ADL; ADSa; and ADS were administered orally to separate non-naïve dogs as a aqueous suspension containing 0.5% carboxymethylcellulose. A single dose that included 20 mg/kg of the carotenoid derivative was administered to each dog. (See FIG. 20, PK Study #CXPK07405). For each carotenoid derivative given to the dogs in this example, the amount of all astaxanthin isomers was determined at predefined time intervals for 3 days (72 hours).
# In another experiment, ADG or ADSa was administered to non-naïve beagle dogs orally (as an aqueous suspension containing 0.5% carboxymethylcellulose). Oral doses included either 50 mg/kg of the carotenoid derivative or 100 mg/kg of the carotenoid derivative. (See FIG. 20, PK Study #CXPK07406). For each carotenoid derivative given to the dogs in this example, the amount of all astaxanthin isomers, the amount of trans astaxanthin isomers, and the amount of cis astaxanthin isomers in the plasma was determined at predefined time intervals for 3 days (72 hours).
# [2] = Monkey PK oral and intravenous (CXPK07502); type: in vivo; conditions: monkeys; oral 10, 300, 500 mg/kg and intravenous 5 mg/kg
# [3] = rat, in vivo
# Experimental: In a another experiment, all-trans 3S,3′S-astaxanthin diester diglycinate dihydrochloride salt (hereinafter “ADG”); all-trans 3S,3′S-astaxanthin diester disarcosinate dihydrochloride salt (hereinafter “ADSa”); and ADL were administered orally to separate rats as a aqueous suspension containing 0.5% carboxymethylcellulose. A single dose that included 40 mg/kg of the carotenoid derivative was administered to each rat. (See FIG. 20, PK Study #CXPK07202). For each carotenoid derivative given to the rats in this example, the amount of all astaxanthin isomers, the amount of trans astaxanthin isomers, and the amount of cis astaxanthin isomers in the plasma was determined at predefined time intervals for 3 days (72 hours).
# In another experiment, ADG; ADSa; and ADL were administered to separate rats intravenously as an aqueous solution. A single dose that included 5 mg/kg of the carotenoid derivative was administered to each rat. (See FIG. 20, PK Study #CXPK07202). For each carotenoid derivative given to the rats in this example, the amount of all astaxanthin isomers, the amount of trans astaxanthin isomers, and the amount of cis astaxanthin isomers in the plasma was determined at predefined time intervals for 3 days (72 hours).
# [4] = test system: platelets; test: Platelet-derived peroxynitrite release after IP3 stimulation; type: cell-based; conditions: IP3 1.0 μM; for effect on platelet ONOO— release: compound alone at 1.0 μM, FIG. 12
# Excerpt: Values are reported as mean±S.D. (N=5). *p<0.001 and †p<0.05 versus control; §p<0.001 versus aspirin treatment (ANOVA Student-Newman-Keuls multiple comparisons test; overall ANOVA: p<0.0001; F=52.475). […] Values are reported as mean±S.D. (N=5). *p<0.001 versus control and †p<0.001 versus aspirin alone (ANOVA Student-Newman-Keuls multiple comparisons test; overall ANOVA: p<0.0001; F=21.905). Abbreviations: Astax=Astaxanthin. […] Values are reported as mean±S.D. (N=5). *p<0.05 and **p<0.001 versus control; †p<0.05 and ‡p<0.001 versus simvastatin alone (ANOVA Student-Newman-Keuls multiple comparisons test; overall ANOVA: p<0.0001; F=13.716). Abbreviations: Astax=Astaxanthin; Simva=Simvastatin.
# [5] = test system: platelets; test: Platelet nitric oxide/peroxynitrite release ratio after IP3 stimulation; type: cell-based; conditions: IP3 1.0 μM
# Excerpt: Values are reported as mean±S.D. (N=5). *p<0.05 and **p<0.001 versus control; †p<0.01 and ‡p<0.001 versus aspirin alone (ANOVA Student-Newman-Keuls multiple comparisons test; overall ANOVA: p<0.0001; F=129.98). Abbreviations: Astax=Astaxanthin. […] Values are reported as mean±S.D. (N=5). *p<0.05 and **p<0.001 versus control; †p<0.001 versus simvastatin alone (ANOVA Student-Newman-Keuls multiple comparisons test; overall ANOVA: p<0.0001; F=84.477). Abbreviations: Astax=Astaxanthin; Simva=Simvastatin. […] Values are reported as mean±S.D. (N=5). *p<0.05 and †p<0.001 versus control; §p<0.001 versus astaxanthin treatment (ANOVA Student-Newman-Keuls multiple comparisons test; overall ANOVA: p<0.0001; F=40.020).
# [6] = test system: human umbilical vein endothelial cells (HUVEC); test: Calcium ionophore (CaI)-stimulated total peroxynitrite release from HUVEC; type: cell-based; conditions: 3S,3′S-AST 5.0 μM, clopidogrel 1.0 μM, alone or in combination; FIG. 6
# Experimental: (§1) Human umbilical vein endothelial cells (HUVECs) were isolated into primary cultures from white female donors by Clonetics (San Diego, Calif.), essentially as described (Mason et al. 2005). All donors were reported to be healthy and none had pregnancy or prenatal complications. All measurements were recorded in vitro using a sensitive porphyrinic probe, also as previously described. HUVEC cells were grown in Ham's F12K medium with 2 mM L-glutamine adjusted to contain 1.5 g/L sodium bicarbonate and supplemented with 0.1 mg/mL heparin and 0.03-0.05 mg/mL endothelial cell growth supplement (ECGS) plus 10% fetal bovine serum. The HUVEC cells were kept in an atmosphere of elevated CO2 concentration (5%).
# [7] = test system: human umbilical vein endothelial cells (HUVEC); test: CaI-stimulated NO/OONO- release ratio from HUVEC; type: cell-based; conditions: 3S,3′S-AST 5.0 μM, clopidogrel 1.0 μM, alone or in combination; FIG. 7
# Experimental: as §1
# [8] = parameters: species or system rats; conditions: in vivo, po, 500 mg/kg
# Experimental: In one experiment, astaxanthin; all-trans 3S,3'S-astaxanthin diester disuccinate disodium salt (hereinafter “ADS”); and all-trans 3S,3'S-astaxanthin diester […] tetrahydrochloride salt (hereinafter “ADL”) were administered orally to separate rats as a lipid suspension. A single dose that included 500 mg/kg of the carotenoid/carotenoid derivative was administered to each rat. (See FIG. 20, PK Study #CXPK07201). Plasma from each of the rats was collected 4 hours after ingestion and 8 hours after ingestion and all samples were analyzed by high performance liquid chromatography (“HPLC”). HPLC analysis was used to detect the presence of free underivatized carotenoid (e.g., in this example, astaxanthin) in the plasma. HPLC chromatograms were collected for each plasma sample taken.
# [9] = test system: vascular platelets; test: Platelet-derived nitric oxide (NO) release after IP3 stimulation, NO nanosensor; type: cell-based, Wistar-Kyoto (WKY) rats
# Experimental: Wistar-Kyoto (WKY) rats were anaesthetized and blood was collected directly from the heart using a 10 mL syringe that contained 3.8% sodium citrate (9:1, v v^−1). […] The platelet rich plasma (PRP) was then removed by aspiration. […] The number of platelets was counted and adjusted to 3.5×10^8 per mL with Tyrode-HEPES buffer. The platelets were incubated in an aggregometer with a NO nanosensor (working electrode) placed in the platelet suspension. […] All measurements of NO release were conducted in Hank's balanced salt solution (HBSS) at 37° C. The sensor operated with a three-electrode system: nanosensor (working electrode), saturated calomel electrode (reference electrode), and platinum wire (counter electrode, 0.5 mm diameter). The three electrodes were connected to a potentiostat/galvanostat PAR273. The baseline was stabilized after ˜20 s. With a nanoinjector, the test compounds were injected onto the surface of the cells following solubilization in buffer. In experiments with multiple compounds, the compounds were injected simultaneously. […] Data were acquired with the use of custom software. Amperograms (current vs. time curves) were recorded with a Guniry FAS1 Femtostat (Warminster, Pa.). The nanosensor for NO was calibrated using saturated solution (concentration 1.82 mM verified with the coulometric method). […] The data were presented as mean±S.D. for each of the triplicate measurements. The data (calculation and plotting) were transferred to Microcal Origin Software (OriginLab Corp., Northampton, Mass.). […] The NO concentration was calculated using current responses obtained from standard NO solution (prepared from […] stock solution, saturated aqueous NO solution).
# [10] = test system: human umbilical vein endothelial cells (HUVEC); test: Calcium ionophore (CaI)-stimulated total nitric oxide release from HUVEC; type: cell-based; conditions: 3S,3′S-AST 5.0 μM, clopidogrel 1.0 μM, alone or in combination; FIG. 5
# Experimental: as §1
# All measurements of NO release were conducted in Hank's balanced salt solution (HBSS) at 37° C. The sensor operated with a three-electrode system: nanosensor (working electrode), saturated calomel electrode (reference electrode), and platinum wire (counter electrode, 0.5 mm diameter). The three electrodes were connected to a potentiostat/galvanostat PAR273. […] The current (amps) proportional to the NO concentration was measured with the sensor, which operated in amperometric mode at a constant potential of 0.63 V. Data were acquired with the use of custom software. Amperograms (current vs. time curves) were recorded with a Guniry FAS1 Femtostat (Warminster, Pa.).
# [11] = astaxanthin combined with aspirin 1.0 μM, IP3 1.0 μM, FIG. 14
SMILES,absorption and metabolism to astaxanthin in plasma [1],absorption and metabolism to astaxanthin in plasma [2],"absorption and metabolism to astaxanthin in plasma ([3]; iv, 5 mg/kg)","absorption and metabolism to astaxanthin in plasma ([3]; po, 40 mg/kg)",effect on platelet ONOO— release [4],"effect on NO/ONOO— ratio ([5]; aspirin separately, 1.0 μM)","effect of astaxanthin on aspirin-induced ONOO— release ([4]; increasing astaxanthin with aspirin 1.0 μM, FIG. 13)",effect on CaI-stimulated total peroxynitrite (OONO−) release from HUVEC [6],effect on CaI-stimulated NO/OONO− release ratio from HUVEC [7],free astaxanthin in rat plasma [8],"sustained production of NO with time (amperogram) ([9]; IP3-stimulated, 3S,3′S-AST 5.0 μM alone or with clopidogrel 1.0 μM, FIG. 4) [s]","mean increase in capacity to generate bioavailable NO vs. controls ([9]; IP3 stimulation, homochiral astaxanthin 5.0 μM alone)","increase in platelet NO generation/release vs. mean control levels ([9]; IP3 stimulation, homochiral astaxanthin 5 μM, clopidogrel 1 μM, each as monotherapy) [%]","total NO release from vascular platelets ([9]; IP3 stimulation, homochiral astaxanthin 5.0 μM, clopidogrel 1.0 μM, controls 6.6±0.3, mean±S.D.)","increase in NO release over untreated samples [9, 11] [fold]","potentiation of the NO release observed by aspirin alone [9, 11] [%]","effect of astaxanthin on simvastatin's platelet-derived NO release ([9]; increasing astaxanthin with simvastatin 1.0 μM, IP3 1.0 μM)",effect on CaI-stimulated total nitric oxide release from HUVEC [10],"NOS coupling efficiency (ratio of NO/ONOO—), increase over control levels as well as aspirin alone ([5]; astaxanthin combined with aspirin 1.0 μM)"
"CNCC(=O)O[C@H]1CC(C)(C)C(/C=C/C(C)=C/C=C/C(C)=C/C=C/C=C(C)/C=C/C=C(C)/C=C/C2=C(C)C(=O)[C@@H](OC(=O)CNC)CC2(C)C)=C(C)C1=O.Cl.Cl (relative stereo) [ADSa, all-trans 3S,3′S-astaxanthin diester disarcosinate dihydrochloride salt]",absorbed by the dogs and metabolized,absorbed by the monkeys and metabolized,absorbed by the rats and metabolized,absorbed by the rats and metabolized,,,,,,,,,,,,,,,
"CC(=O)Oc1ccccc1C(=O)O [aspirin, reference compound]",,,,,increased,failed to produce a favorable effect,,,,,,,,,,,,,
"CC1=C(/C=C/C(C)=C/C=C/C(C)=C/C=C/C=C(C)/C=C/C=C(C)/C=C/C2=C(C)C(=O)[C@@H](O)CC2(C)C)C(C)(C)C[C@H](O)C1=O [homochiral astaxanthin, astaxanthin]",,,,,decreased,,reverse the effect of aspirin on ONOO— release in a dose-dependent manner,Statistically significant decreases,Statistically significant increases,no significant amount,13,two-fold,~100,12.9±0.3 molecules NO×10^6/platelet,3,80,enhanced the effect of simvastatin on platelet-derived NO release in a dose-dependent fashion,Statistically significant increases,approximately three-fold

# Source: patent US8063101B2, “Carotenoid analogs and derivatives for the prevention of platelet aggregation” (Cardax Pharmaceuticals, Inc., priority 2007, dated 2011)
